Assay results: patent publication US5574043A, “Certain [1,2,5-thiadiazol-4-yl]-1-azabicyclo [3.2.1]octane derivatives and their pharmaceutical uses” (Novo Nordisk A/S, priority 1995, dated 1996)
Structures can show the parent of a compound that is named as a salt.

Biological target: muscarinic acetylcholine receptors
Test: Inhibition of specific binding of 3H-Oxotremorine-M (OXO BINDING) in vitro, rat cortex
Design: species or system male Wistar rats
Settings: rat cortex homogenate, 3H-Oxotremorine 1.0 nM, 30 min at 25° C., pH 7.4
From the text: The pharmacological properties of the compounds of the invention can be illustrated by determining their capability to inhibit the specific binding of ^3 H-Oxotremorine-M (^3 H-Oxo). Birdsdall N. J. M., Hulme E. C., and Burgen A. S. V. (1980). "The Character of Muscarinic Receptors in Different Regions of the Rat Brain". Proc. Roy. Soc. London (Series B) 207,1.
^3 H-Oxo labels muscarinic receptor in the CNS (with a preference for agonist domains of the receptors). Three different sites are labelled by ^3 H-Oxo. […] Using the present experimental conditions only the high and medium affinity sites are determined.
The inhibitory effects of compounds on ^3 H-Oxo binding reflects the affinity for muscarinic acetylcholine receptors.
All preparations are performed at 0°-4° C. unless otherwise indicated. Fresh cortex (0.1-1 g) from male Wistar rats (150-250 g) is homogenized for 5-10 s in 10 ml 20 mM Hepes pH: 7.4, with an Ultra-Turrax homogenizer. The homogenizer, is rinsed with 10 ml of buffer and the combined suspension centrifuged for 15 min at 40,000×g. The pellet is washed three times with buffer. In each step the pellet is homogenized as before in 2×10 ml of buffer and centrifuged for 10 min at 40,000×g.
The final pellet is homogenized in 20 mM Hepes pH: 7.4 (100 ml per g of original tissue) and used for binding assay. Aliquots of 0.5 ml is added 25 μl of test solution and 25 μl of ^3 H-Oxotremorine (1.0 nM, final concentration) mixed and incubated for 30 min at 25° C. Non-specific binding is determined in triplicate using arecoline (1 μg/ml, final concentration) as the test substance. After incubation samples are added 5 ml of ice-cold buffer and poured directly onto Whatman GF/C glass fibre filters under suction and immediately washed 2 times with 5 ml of ice-cold buffer. The amount of radioactivity on the filters are determined by conventional liquid scintillation counting. Specific binding is total binding minus non specific binding.
Test substances are dissolved in 10 ml water (if necessary heated on a steam bath for less than 5 minutes) at a concentration of 2.2 mg/ml.
The test value will be given as IC50 (the concentration (ng/ml) of the test substance which inhibits the specific binding of ^3 H-Oxo by 50%).
IC50 =(applied test substance concentration) [formula] where Co is specific binding in control assays and Cx is the specific binding in the test assay. (The calculations assume normal mass-action kinetics).

Compound | Inhibition in vitro OXO BINDING IC50 [ng/mL]
CCSc1nsnc1[C@H]1CN2CCC[C@@H]1C2 (relative stereo) [Compound 25, Endo-6-(3-ethylthio-1,2,5-thiadiazol-4-yl)-1-azabicyclo[3.2.1]octane oxalate] | 1.9
ClC1=C(c2nsnc2Cl)C2CCC(C1)N2.O=C(O)C(=O)O (stereo not shown) [Compound 47, 3-Chloro-2-(3-chloro-1,2,5-thiadiazol-4-yl)-8-azabicyclo[3.2.1]oct-2-ene oxalate] | > 300
CCCCCSc1nsnc1C1CN2CCC1CC2.O=C(O)/C=C/C(=O)O (stereo not shown) [Compound 12, 3-(3-Pentylthio-1,2,5-thiadiazol-4-yl)-1-azabicyclo[2.2.2]octane fumarate] | 0.45
N#CCCCSc1nsnc1[C@H]1CN2CCC[C@H]1C2 (relative stereo) [Compound 81, Exo-6-(3-(3-cyanopropyithio)-1,2,5-thiadiazol-4-yl)-1-azabicyclo[3.2.1]octane oxalate] | 0.40
CCCCCCSc1nsnc1[C@@H]1CN2CC[C@H]1C2 (relative stereo) [Compound 34, Endo-3-(3-hexylthio-1,2,5-thiadiazol-4-yl)-1-azabicyclo[2.2.1]heptane fumarate] | 7.9
N#CCCSc1nsnc1[C@H]1CN2CCC[C@H]1C2 (relative stereo) [Compound 80, Exo-6-(3-(2-cyanoethylthio)-1,2,5-thiadiazol-4-yl)-1-azabicyclo[3.2.1]octane oxalate] | 0.30
COc1nsnc1C1=CC2CCCN(C1)C2.O=C(O)C(=O)O (stereo not shown) [Compound 96, 3-(3-Methoxy-1,2,5-thiadiazol-4-yl)-1-azabicyclo[3.3.1]non-3-ene oxalate] | 0.3
CSc1nsnc1[C@H]1CN2CCC[C@H]1C2 (relative stereo) [Compound 74, Exo-6-(3-methylthio-1,2,5-thiadiazol-4-yl)-1-azabicyclo[3.2.1]octane oxalate] | 0.45
N#CCSc1nsnc1[C@H]1CN2CCC[C@H]1C2 (relative stereo) [Compound 79, Exo-6-(3-cyanomethylthio-1,2,5-thiadiazol-4-yl)-1-azabicyclo[3.2.1]octane oxalate] | 0.50
CCCCCCOc1nsnc1C1=C(Cl)C2CCCN(C1)C2.Cl (stereo not shown) [Compound 94, 4-Chloro-3-(3-hexyloxy-1,2,5-thiadiazol-4-yl)-1-azabicyclo[3.3.1]non-3-ene hydrochloride] | 12
CCOc1nsnc1[C@H]1CN2CCC[C@@H]1C2 (relative stereo) [Compound 20, Endo-6-(3-ethoxy-1,2,5-thiadiazol-4-yl)-1-azabicyclo[3.2.1]octane oxalate] | 11
CCCCCOc1nsnc1C1=C(Cl)C2CCCN(C1)C2 (stereo not shown) [Compound 63, 4-Chloro-3-(3-pentyloxy-1,2,5-thiadiazol-4-yl)-1-azabicyclo[3.3.1]non-3-eneoxalate] | 8.2
Clc1nsnc1C1CN2CCC1CC2.O=C(O)C(=O)O (stereo not shown) [Compound 8, 3-(3-Chloro-1,2,5-thiadiazol-4-yl)-1-azabicyclo[2.2.2]octane oxalate] | 5.2
N#CCCCCSc1nsnc1[C@H]1CN2CCC[C@@H]1C2 (relative stereo) [Compound 92, Endo-6-(3-(4-cyanobutylthio)-1,2,5-thiadiazol-4-yl)-1-azabicyclo[3.2.1]octane oxalate] | 1.5
COc1nsnc1C1=C(Cl)C2CCCN(C1)C2.O=C(O)C(=O)O (stereo not shown) [Compound 64, 4-Chloro-3-(3-methoxy-1,2,5-thiadiazol-4-yl)-1-azabicyclo[3.3.1]non-3-ene oxalate] | 8.2
CCCCSc1nsnc1[C@H]1CN2CC[C@H]1C2 (relative stereo) [Compound 42, Exo-3-(3-butylthio-1,2,5-thiadiazol-4-yl)-1-azabicyclo[2.2.1]heptane oxalate] | 0.35
COc1nsnc1[C@@H]1CN2CC[C@H]1C2 (relative stereo) [Compound 23, Endo-3-(3-methoxy-1,2,5-thiadiazol-4-yl)-1-azabicyclo[2.2.1]heptane oxalate] | 43
CCCOc1nsnc1[C@@H]1CN2CCC[C@@H]1C2 (relative stereo) [Compound 119, Exo-6-(3-propoxy-1,2,5-thiadiazol-4-yl)-1-azabicyclo[3.2.1]octane oxalate] | 0.30
N#Cc1ccc(CSc2nsnc2[C@H]2CN3CCC[C@H]2C3)cc1 (relative stereo) [Compound 82, Exo-6-(3-(4-cyanobenzylthio)-1,2,5-thiadiazol-4-yl)-1-azabicyclo[3.2.1]octane oxalate] | 0.40
Clc1nsnc1C1(Cl)CN2CCC1CC2.O=C(O)C(=O)O (stereo not shown) [Compound 1, 3-Chloro-3-(3-chloro-1,2,5-thiadiazol-4-yl)-1-azabicyclo[2.2.2]-octane oxalate] | 156
CCCCOc1nsnc1C1=CC2CCCN(C1)C2.O=C(O)C(=O)O (stereo not shown) [Compound 95, 3-(3-Butoxy-1,2,5-thiadiazol-4-yl)-1-azabicyclo[3.3.1]non-3-ene oxalate] | 1.7
CCSc1nsnc1C1CN2CCC1CC2.O=C(O)C(=O)O (stereo not shown) [Compound 52, 3-(3-Ethylthio-1,2,5-thiadiazol-4-yl)-1-azabicyclo[2.2.2]octane oxalate] | 0.61
CCCCCCCSc1nsnc1C1CN2CCC1CC2.O=C(O)/C=C/C(=O)O (stereo not shown) [Compound 54, 3-(3-Heptylthio-1,2,5-thiadiazol-4-yl)-1-azabicyclo[2.2.2]octane fumarate] | 3.1
c1ccc(CCCSc2nsnc2[C@H]2CN3CCC[C@@H]2C3)cc1 (relative stereo) [Compound 27, Endo-6-(3-(3-phenylpropylthio)-1,2,5-thiadiazol-4-yl)-1-azabicyclo[3.2.1]octane oxalate] | 17
CCCCCOc1nsnc1C1CN2CCC1CC2.O=C(O)C(=O)O (stereo not shown) [Compound 50, 3-(3-Pentyloxy-1,2,5-thiadiazol-4-yl)-1-azabicyclo[2.2.2]octane oxalate] | 1.0
N#Cc1ccc(CSc2nsnc2[C@H]2CN3CCC[C@@H]2C3)cc1 (relative stereo) [Compound 28, Endo-6-(3-(4-cyanobenzylthio)-1,2,5-thiadiazol-4-yl)-1-azabicyclo[3.2.1]octane oxalate] | 1.9
CC(C)CSc1nsnc1C1CN2CCC1CC2.O=C(O)/C=C/C(=O)O (stereo not shown) [Compound 101, 3-(3-Isobutylthio-1,2,5-thiadiazol-4-yl)-1-azabicyclo[2.2.2]octane fumarate] | 0.75
CC(C)CCOc1nsnc1C1CN2CCC1CC2.O=C(O)C(=O)O (stereo not shown) [Compound 51, 3-(3-Isopentyloxy-1,2,5-thiadiazol-4-yl)-1-azabicyclo[2.2.2]octane oxalate] | 0.89
